US12129265B2, “Therapeutic agents and uses thereof” (Ankh Life Sciences Limited, priority 2020, dated 2024)
Read-outs that look alike come from different tables or passages of the source. Each block holds one molecule with its values, some of them ahead of it.

Assays:
Assay in all cases: CellTiter-Glo in vitro cell proliferation assay, Example 8
SU-DHL-4 cells = assay type: cell-based; conditions: Homo sapiens; SU-DHL-4, Diffuse Large B-Cell Lymphoma, 72 hours; read-out: Mean IC50
Description: (§1) In this Example, in vitro cell proliferation assays were performed using: (1) Human Myeloma tumor cell lines; (2) Human Lymphoma tumor cell lines; (3) Solid Human tumor cell lines; and (4) Parental, Lenalidomide resistant and Bortezomib resistant Jeko-1 Mantle cell Lymphoma tumor cell lines. The compounds tested were three diharmaline compounds, namely the 518B562 (or simply 562), 560, and 561 compounds. In addition, a monoharmaline product designated as 518F014 was also tested. This monoharmaline product had the following structure:
(§2) Each proliferation assay was carried out as follows. The test cells were plated in growth media using a 384-well microtiter plate at 50 μL volume. The cells were incubated for 24 hours at 37° C. in a humidified incubator. After 24 hours of incubation, the test compounds were added to the test wells in DSMO solvent, at concentrations ranging from 0.0075-100 μM. Control wells received equal volumes of DSMO, without compound. Following drugging, the cells were incubated for 72 hours at 37° C. in a humidified incubator. After this exposure, 100 μL of a 1:1 mixture of sterile water and CellTiter-Glo® reagent (Promega) was added to each well. The plates were then incubated for 60 minutes at room temperature, followed by recording the luminescence value of each well using a luminometer as a measure of cell proliferation.

RXF-393 cells = assay type: cell-based; conditions: Homo sapiens; RXF-393, Renal, 72 hours; read-out: Mean IC50
Description: as §1, §2

SU-DHL-6 cells = assay type: cell-based; conditions: Homo sapiens; SU-DHL-6, Diffuse Large B-Cell Lymphoma, 72 hours; read-out: Mean IC50
Description: as §1, §2

Jeko-1 Parental cells = assay type: cell-based; conditions: Homo sapiens, Mantle Cell Lymphoma, 72 hours
Description: as §1, §2

[1] = system: Jeko-1 Lenalidomide resistant cells; assay type: cell-based; conditions: Homo sapiens, Mantle Cell Lymphoma, 72 hours
Description: as §1, §2

[2] = system: Jeko-1 Bortezomib resistant cells; assay type: cell-based; conditions: Homo sapiens, Mantle Cell Lymphoma, 72 hours
Description: as §1, §2

N87 cells = assay type: cell-based; conditions: Homo sapiens; N87, Gastric, 72 hours; read-out: Mean IC50
Description: as §1, §2

A2780CP cells = assay type: cell-based, Human; conditions: Ovarian, read-out: Mean IC50
In short: (§3)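 24 h pre-incubation of plated cells at 37 °C; compound 0.0075–100 μM in DMSO; 72 h exposure at 37 °C; CellTiter-Glo, 60 min RT; luminescence read. Vehicle controls: DMSO alone.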

KMS-34 cells = assay type: cell-based, Human; conditions: read-out: Mean IC50
In short: as §3

BxPC-3 cells = assay type: cell-based, Human; conditions: BxPC-3, Pancreatic, read-out: Mean IC50
In short: as §3

KMS-11 cells = assay type: cell-based, Human; conditions: KMS-11, Human Myeloma, 72 hours; read-out: Mean IC50
In short: as §3

MDA-MB-231 cells = assay type: cell-based, Human; conditions: read-out: Mean IC50
In short: as §3

HEC-1a cells = assay type: cell-based, Human; conditions: Endometrial, read-out: Mean IC50
In short: as §3

H1975 (EGFR mut) cells = assay type: cell-based, Human; conditions: read-out: Mean IC50
In short: as §3

L363 cells = assay type: cell-based, Human; conditions: read-out: Mean IC50
In short: as §3

H929 cells = assay type: cell-based, Human; conditions: NCI-H929; H929, Human Myeloma, 72 hours; read-out: Mean IC50
In short: as §3

A498 cells = assay type: cell-based, Human; conditions: read-out: Mean IC50
In short: as §3

KMS-27 cells = assay type: cell-based, Human; conditions: KMS-27, Human Myeloma, 72 hours; read-out: Mean IC50
In short: as §3

MDA-MB-468 cells = assay type: cell-based, Human; conditions: read-out: Mean IC50
In short: as §3

MM.1s cells = assay type: cell-based, Human; conditions: MM1.S; MM.IS, Human Myeloma, 72 hours; read-out: Mean IC50
In short: as §3

SiHA cells = assay type: cell-based, Human; conditions: read-out: Mean IC50
In short: as §3

KHM-1B cells = assay type: cell-based, Human; conditions: Human Myeloma, 72 hours, read-out: Mean IC50
In short: as §3

MOLP-8 cells = assay type: cell-based, Human; conditions: read-out: Mean IC50
In short: as §3

HCC70 cells = assay type: cell-based, Human; conditions: read-out: Mean IC50
In short: as §3

OCI-LY3 cells = assay type: cell-based, Human; conditions: read-out: Mean IC50
In short: as §3

DOHH-2 cells = assay type: cell-based, Human; conditions: read-out: Mean IC50
In short: as §3

FaDu cells = assay type: cell-based, Human; conditions: read-out: Mean IC50
In short: as §3

AN3CA cells = assay type: cell-based, Human; conditions: Endometrial, read-out: Mean IC50
In short: as §3

JIM1 cells = assay type: cell-based, Human; conditions: read-out: Mean IC50
In short: as §3

ASPC-1 cells = assay type: cell-based, Human; conditions: ASPC-1, Pancreatic, read-out: Mean IC50
In short: as §3

A2780 cells = assay type: cell-based, Human; conditions: A2780, Ovarian, read-out: Mean IC50
In short: as §3

H1650 (EGFR mut) cells = assay type: cell-based, Human; conditions: read-out: Mean IC50
In short: as §3

MIA PaCa-2 cells = assay type: cell-based, Human; conditions: MIA PaCa-2, Pancreatic, read-out: Mean IC50
In short: as §3

KMM-1 cells = assay type: cell-based, Human; conditions: read-out: Mean IC50
In short: as §3

RPMI-8226 cells = assay type: cell-based, Human; conditions: RPMI-8226, HMM
In short: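 After 24 h plating, cells exposed to compound in DMSO over 0.0075–100 µM for 72 h at 37 °C. Viability read by CellTiter-Glo luminescence after 60 min at room temperature, relative to DMSO controls.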

[3] = Homo sapiens, Squamous, 72 hours

- IC50 (SU-DHL-4 cells): 91.3 µM
- IC50 (SU-DHL-6 cells): 50 µM
- IC50 (A2780CP cells; Homo sapiens, A2780C/P, 72 hours): > 100 µM
- IC50 (BxPC-3 cells; Homo sapiens, 72 hours): 98.7 µM
- IC50 (MDA-MB-231 cells; Homo sapiens, MDA-MB-231, Triple Negative Breast, 72 hours): 78.2 µM
- IC50 (H1975 (EGFR mut) cells; Homo sapiens, NCI-H1975, Non Small Cell Lung, 72 hours): 79.7 µM
- IC50 (H929 cells): 80.3 µM
- IC50 (MDA-MB-468 cells; Homo sapiens, MDA-MB-468, Triple Negative Breast, 72 hours): > 100 µM
- IC50 (MM.1s cells): > 100 µM
- IC50 (OCI-LY3 cells; Homo sapiens, OCI-LY3, Diffuse Large B-Cell Lymphoma, 72 hours): > 100 µM
- IC50 (ASPC-1 cells; Homo sapiens, ASPC1, 72 hours): 87.1 µM
- IC50 (A2780 cells; Homo sapiens, 72 hours): 70.9 µM
- IC50 (H1650 (EGFR mut) cells; Homo sapiens, NCI-H1650, Non Small Cell Lung, 72 hours): > 100 µM
- IC50 (MIA PaCa-2 cells; Homo sapiens, 72 hours): > 100 µM
SMILES: COc1ccc2c(c1)=NC1=C(CCc3ccc(O)c(OC)c3)NCCC=21 [518F014]
- IC50 (RXF-393 cells): 96.5 µM
- IC50 (Jeko-1 Parental cells): 89.4 µM
- IC50 [1]: 79.4 µM
- IC50 [2]: 87.6 µM
- IC50 (N87 cells): 40.6 µM
- IC50 (KMS-34 cells; KMS-34, Human Myeloma, 72 hours): > 100 µM
- IC50 (KMS-11 cells): > 100 µM
- IC50 (HEC-1a cells; Homo sapiens, 72 hours): > 100 µM
- IC50 (L363 cells; L-363, L363, Human Myeloma, 72 hours): 99.1 µM
- IC50 (A498 cells; Homo sapiens, A498, Renal, 72 hours): > 100 µM
- IC50 (KMS-27 cells): 91.2 µM
- IC50 (SiHA cells; [3]): > 100 µM
- IC50 (KHM-1B cells): 94.1 µM
- IC50 (MOLP-8 cells; MOLP-8, Human Myeloma, 72 hours): 86.4 µM
- IC50 (HCC70 cells; Homo sapiens, HCC70, Triple Negative Breast, 72 hours): > 100 µM
- IC50 (DOHH-2 cells; Homo sapiens, DOHH-2, Diffuse Large B-Cell Lymphoma, 72 hours): > 100 µM
- IC50 (FaDu cells; [3]): > 100 µM
- IC50 (AN3CA cells; Homo sapiens, AN3-CA, 72 hours): 88.1 µM
- IC50 (JIM1 cells; JIM1, Human Myeloma, 72 hours): 85.2 µM
- IC50 (KMM-1 cells; KMM-1, Human Myeloma, 72 hours): 82.2 µM

SMILES: COc1ccc2c3c([nH]c2c1)C(CC(CC1=NCCc2c1[nH]c1cc(OC)ccc21)C1CCCCC1)=NCC3 [compound 30]
- IC50 (A2780CP cells): 8.55 µM
- IC50 (KMS-34 cells; KMS-34, HMCL-B): 4.81 µM
- IC50 (BxPC-3 cells): 7.73 µM
- IC50 (MDA-MB-231 cells; MDA-MB-231, TNBC): 11.1 µM
- IC50 (HEC-1a cells): 9.91 µM
- IC50 (H1975 (EGFR mut) cells; NSCLC): 11.4 µM
- IC50 (L363 cells; L363, PCL/MM): 5.57 µM
- IC50 (A498 cells; A498, RCC): 17.1 µM
- IC50 (MDA-MB-468 cells; MDA-MB-468, TNBC): 7.46 µM
- IC50 (SiHA cells; Cervical - SC): 17.8 µM
- IC50 (MOLP-8 cells; MOLP-8, MM IgD): 2.7 µM
- IC50 (HCC70 cells; HCC70, TNBC): 18.5 µM
- IC50 (OCI-LY3 cells; OCI-LY3, ABC-DLBCL): 7.28 µM
- IC50 (DOHH-2 cells; DoHH-2, GCB-DLBCL): 5.36 µM
- IC50 (FaDu cells; H&N - SC): 6.82 µM
- IC50 (AN3CA cells): 5.01 µM
- IC50 (JIM1 cells; JIM1, HMCL): 7.07 µM
- IC50 (ASPC-1 cells): 11 µM
- IC50 (A2780 cells): 6.45 µM
- IC50 (H1650 (EGFR mut) cells; NSCLC): 16.6 µM
- IC50 (MIA PaCa-2 cells): 5.47 µM
- IC50 (KMM-1 cells; KMM-1, HMCL-A): 5.81 µM
- IC50 (RPMI-8226 cells): 4.3 µM
